{"source": "patent US20220096717A1", "about": "“AXITINIB-LOADED NANOFIBER MEMBRANE, PREPARATION METHOD FOR THE SAME, AND ITS USE OF ANTI-ADHESION AFTER A SURGERY” (SHANGHAI CHILDREN'S MEDICAL CENTER, SHANGHAI JIAO TONG …, priority 2020, published 2022)", "assay": "Solubility of Axitinib (FIG. 1)", "assay_type": "physicochemical", "conditions": "FIG. 1A", "experimental": "FIG. 1: pictures showing solubility of Axitinib. A is a picture in which Axitinib is dissolved in water and trifluoroethanol; B is a picture in which gelatin and polycaprolactone are dissolved in trifluoroethanol with and without the addition of Axitinib to the electrospinning solution.\nStirring the solution to forms a milky solution. When it stays for a long period of time, granular precipitation may occur. […] 0.25 g of gelatin and 0.25 g of polycaprolactone were dissolved in 5 ml of trifluoroethanol containing 20 μl of acetic acid to form a transparent solution, and 50 mg of Axitinib was added to form a light yellow transparent solution (B)."}
{"molecule": "CNC(=O)c1ccccc1Sc1ccc2c(/C=C/c3ccccn3)n[nH]c2c1", "note": "[Axitinib]", "values": [{"measurement": "solubility in trifluoroethanol (TFE)", "setting": "trifluoroethanol", "value": "quickly dissolved"}, {"measurement": "solubility in water", "setting": "water", "value": "poorly soluble"}]}
